The NIST ThermoML archive (doi:10.1021/acs.jced.6b00391)
Values joined by “and” are separate entries in the source; they are usually repeats but may differ in a detail not shown here. Equal entries are not always repeated.

Columns and labels:
[1] = xn = mol fraction of the nth substance listed; conditions: Liquid, Capillary tube (Ostwald / Ubbelohde) method
[2] = Liquid, Capillary tube (Ostwald / Ubbelohde) method

CCCCCCCC [octane] + CCCCCCC
viscosity, [1]
Conditions	100 kPa	5000 kPa
303.5 K, x2 = 0.255	0.4422 mPa·s and 0.4417 mPa·s	–
303.5 K, x2 = 0.51	0.4149 mPa·s and 0.413 mPa·s	0.4362 mPa·s and 0.4357 mPa·s
303.9 K, x2 = 0.255	–	0.4663 mPa·s and 0.4658 mPa·s
305.7 K, x2 = 0.759	0.3798 mPa·s and 0.3784 mPa·s	0.4032 mPa·s and 0.4029 mPa·s
333.5 K, x2 = 0.51	0.3011 mPa·s and 0.3026 mPa·s	–
333.8 K, x2 = 0.255	0.3234 mPa·s and 0.3228 mPa·s	–
335.6 K, x2 = 0.759	0.2815 mPa·s and 0.2806 mPa·s	–
363.4 K, x2 = 0.255	0.2447 mPa·s and 0.2464 mPa·s	–
363.4 K, x2 = 0.51	0.2329 mPa·s and 0.2323 mPa·s	–
364.6 K, x2 = 0.759	0.2164 mPa·s and 0.2169 mPa·s	–
373.2 K, x2 = 0.255	–	0.2415 mPa·s and 0.2402 mPa·s
373.2 K, x2 = 0.759	–	0.2181 mPa·s and 0.2175 mPa·s
373.6 K, x2 = 0.51	–	0.2277 mPa·s and 0.2275 mPa·s
413.7 K, x2 = 0.51	–	0.1702 mPa·s and 0.1698 mPa·s
413.9 K, x2 = 0.255	–	0.1792 mPa·s and 0.1801 mPa·s
424.4 K, x2 = 0.759	–	0.1497 mPa·s and 0.1493 mPa·s
472.5 K, x2 = 0.759	–	0.1071 mPa·s and 0.1075 mPa·s
473.4 K, x2 = 0.51	–	0.1124 mPa·s and 0.1125 mPa·s
473.5 K, x2 = 0.255	–	0.1186 mPa·s and 0.1184 mPa·s

CCCCCCCCCCCC [dodecane]
[2], 5000 kPa
Conditions	viscosity
303.2 K	1.334 mPa·s and 1.314 mPa·s
313.2 K	1.122 mPa·s and 1.116 mPa·s
323 K	0.97 mPa·s and 0.9626 mPa·s
333.1 K	0.8519 mPa·s and 0.8434 mPa·s
343.3 K	0.7442 mPa·s and 0.7445 mPa·s
353.3 K	0.6736 mPa·s and 0.6661 mPa·s
363.2 K	0.6075 mPa·s and 0.5969 mPa·s
373.3 K	0.5467 mPa·s and 0.5397 mPa·s
383.2 K	0.4902 mPa·s and 0.4913 mPa·s
393.2 K	0.4472 mPa·s and 0.448 mPa·s
403.2 K	0.4112 mPa·s and 0.4118 mPa·s
413.2 K	0.3785 mPa·s and 0.3799 mPa·s
423.2 K	0.3508 mPa·s and 0.3516 mPa·s
433.2 K	0.3277 mPa·s and 0.3259 mPa·s
443.4 K	0.2974 mPa·s and 0.3041 mPa·s
453.1 K	0.2822 mPa·s and 0.2827 mPa·s
463.2 K	0.2604 mPa·s and 0.2619 mPa·s
473.2 K	0.244 mPa·s and 0.244 mPa·s
483.1 K	0.225 mPa·s and 0.2259 mPa·s
493.2 K	0.2076 mPa·s and 0.2072 mPa·s
503.2 K	0.1964 mPa·s and 0.1969 mPa·s
513.1 K	0.1846 mPa·s and 0.1835 mPa·s
523.2 K	0.1722 mPa·s and 0.1698 mPa·s
533.1 K	0.1608 mPa·s and 0.1591 mPa·s
543.2 K	0.1489 mPa·s and 0.1487 mPa·s
553.2 K	0.1375 mPa·s and 0.1391 mPa·s
563.2 K	0.1297 mPa·s and 0.1305 mPa·s
573.2 K	0.1201 mPa·s and 0.1221 mPa·s
583.3 K	0.1126 mPa·s and 0.1141 mPa·s
593.2 K	0.1031 mPa·s and 0.1064 mPa·s
603.2 K	0.0974 mPa·s and 0.0987 mPa·s
613.2 K	0.0913 mPa·s and 0.0915 mPa·s
623.1 K	0.0839 mPa·s and 0.0849 mPa·s
633.2 K	0.0767 mPa·s and 0.0786 mPa·s
643.1 K	0.0694 mPa·s and 0.0714 mPa·s
653.2 K	0.0657 mPa·s and 0.065 mPa·s
663.2 K	0.0605 mPa·s and 0.0605 mPa·s
673.2 K	0.0551 mPa·s and 0.0548 mPa·s

CCCCCCCC [octane]
[2], 3100 kPa
Conditions	viscosity
303.2 K	0.4913 mPa·s and 0.4948 mPa·s
313.3 K	0.4426 mPa·s and 0.4431 mPa·s
323.2 K	0.3961 mPa·s and 0.3979 mPa·s
333.2 K	0.3634 mPa·s and 0.3617 mPa·s
343.2 K	0.3311 mPa·s and 0.3308 mPa·s
353.1 K	0.3013 mPa·s and 0.3032 mPa·s
363.2 K	0.2765 mPa·s and 0.2775 mPa·s
373.3 K	0.254 mPa·s and 0.258 mPa·s
383 K	0.234 mPa·s and 0.2379 mPa·s
393.1 K	0.2205 mPa·s and 0.2202 mPa·s
403.2 K	0.2019 mPa·s and 0.204 mPa·s
413.2 K	0.1905 mPa·s and 0.1902 mPa·s
423.2 K	0.1761 mPa·s and 0.1775 mPa·s
433.1 K	0.1643 mPa·s and 0.1642 mPa·s
443.2 K	0.1526 mPa·s and 0.1514 mPa·s
453.1 K	0.1417 mPa·s and 0.1428 mPa·s
463.2 K	0.1321 mPa·s and 0.1318 mPa·s
473.1 K	0.1228 mPa·s and 0.1241 mPa·s
483.1 K	0.1138 mPa·s and 0.1152 mPa·s
493.1 K	0.1068 mPa·s and 0.1072 mPa·s
503 K	0.0993 mPa·s and 0.0983 mPa·s
513.2 K	0.0901 mPa·s and 0.0904 mPa·s
523.3 K	0.0825 mPa·s and 0.0826 mPa·s
533.4 K	0.0753 mPa·s and 0.0751 mPa·s
543.4 K	0.0678 mPa·s and 0.0678 mPa·s
553.4 K	0.0607 mPa·s and 0.0609 mPa·s
563.3 K	0.0532 mPa·s and 0.0534 mPa·s
573.3 K	0.0444 mPa·s and 0.0446 mPa·s
583.1 K	0.0325 mPa·s and 0.0323 mPa·s
